The subject of assay [1] is P. aeruginosa 14 strain (PA14), ancestor strain. It counts as cell-based, Pseudomonas aeruginosa. The conditions noted are these: ancestral strain PA14; MH broth, 5 × 10^5 CFU/ml, 96-well serial dilution, 24 h, inhibition of growth by at least 90% (OD595); 3 replicate lines per peptide. The method, then: MIC values were determined following a standard serial dilution protocol, as described elsewhere. Briefly, PA14 cells were grown overnight in MH broth, at 37°C and 200 rpm. Subsequently, cells were diluted 1:100 in MH broth and grown until reaching an optical density at 595 nm (OD595) of 0.1. Then, 100 μl of 5 × 10^5 CFU/ml were inoculated into each well in 96-well plates that contained a serial dilution of AMPs or RPMs. Each plate contained 3 replicate lines per peptide. The MICs were defined as the lowest concentration at which there was inhibition of bacterial growth by at least 90%, after 24 h, by measuring the OD595.
The MIC was determined on 3 occasions: (1) prior to the experiment, to determine the concentration of our focal peptides to be used at the start of the experimental evolution (i.e., MIC of the ancestor strain); (2) at the end of the experimental evolution, detect an increase, or decrease, in the resistance of the experimentally evolved strains to our peptides of interest; (3) to evaluate whether the experimental evolution of a certain treatment was accompanied by an increase, or decrease, in resistance or sensitivity to another antimicrobial (i.e., cross-resistance or collateral-sensitivity).

Assay [2] deals with PA14 strains evolved in the presence of an AMP/RPM. The experiment in a line: Fitness cost of evolved strains (growth curves in the absence of AMPs). It counts as cell-based, Pseudomonas aeruginosa. The conditions noted are these: growth in MH broth without AMPs, OD595 every 15 min for 24 h, normalised to ancestor; n = 6. As to the method: Bacterial cells were grown overnight in MH broth and then diluted to an OD595 of 0.1. For each strain, 200 μl of culture were transferred into 96-well plates, with 3 technical replicates. Optical density (OD595) was measured every 15 min for 24 h using an Epoch 2 microplate reader (BioTek). Lag time and Vmax were assessed using the plate reader software (Gen5). The values measured in the experimentally evolved strains were divided by the values of their respective ancestors and expressed as lag time fold-change and Vmax fold-change (see “Statistical analysis” section).
Similarly, we normalised both fitness readouts duration of the lag phase (lag time) and maximum slope of the bacterial growth curve (Vmax) to the readouts of the ancestor of the given evolved strain by dividing the values of the evolved strains to that of their respective ancestors. The resulting variable is a fold-change in Vmax and lag time during experimental evolution: Vmax fold-change and lag time fold-change.

As a reminder, the MIC is the lowest concentration found to suppress growth. Low values mean inhibition by little substance, high ones a need for much substance.

Where no end group is shown, it is not given here.

In assay [1], KIAKRIWKILRRR [PA-13] showed a minimum inhibitory concentration (MIC) of 25 µg/mL.

For the substance “p-KKKFK [SLM3, specific palmitic acid-modified 5-mer peptide, composed of L-Lysine and/or L-Phenylalanine, part of a 32-peptide library]”, the “Lag time fold-change of evolved strains compared to control strains” value in assay [2] is on record as “significantly increased lag times”.
